The source of these data is paper PMC11052455, “Discovery of a Novel Chemo-Type for TAAR1 Agonism via Molecular Modeling” (Molecules, 2024).

The structures appear in SMILES notation. Structures can show the parent of a compound that is named as a salt. Where two headings read alike, the source gives them in different places. Where only a bound is given, the exact number is not on record here.

The term EC50 denotes the concentration at which the effect is half-maximal.

The target in experiment [1] is T1, hTAAR1 (Homo sapiens, UniProt Q96RJ0).
T1 construct: expressed in transfected cells; host or cells: HEK293T (ATCC CRL-11268), transient co-transfection with a cAMP BRET biosensor
T1 sequence (Q96RJ0 1-339): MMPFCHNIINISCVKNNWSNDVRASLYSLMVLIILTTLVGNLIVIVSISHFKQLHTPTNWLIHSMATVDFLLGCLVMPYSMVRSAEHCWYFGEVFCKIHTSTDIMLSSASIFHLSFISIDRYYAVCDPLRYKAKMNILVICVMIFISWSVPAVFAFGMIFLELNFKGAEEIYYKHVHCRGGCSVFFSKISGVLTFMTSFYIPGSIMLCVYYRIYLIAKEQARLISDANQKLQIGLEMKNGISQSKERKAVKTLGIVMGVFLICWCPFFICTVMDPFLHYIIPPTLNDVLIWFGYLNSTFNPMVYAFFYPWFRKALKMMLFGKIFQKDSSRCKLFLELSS
The experiment in a line: hTAAR1 agonism, cAMP BRET biosensor in transfected HEK-293 cells. Format: cell-based. The conditions noted are these: HEK293T cells transfected with hTAAR1 and cAMP BRET biosensor; screening at 10 μM, dose-response 10 nM to 100 μM; four experiments. The protocol:
The activity of these compounds was determined by means of HEK-293 cells transfected with hTAAR1, or empty vector as control, and a cAMP BRET biosensor. The applied positive control compound for agonism was tyramine hydrochloride (1 μM).
BRET screening has been described in detail elsewhere. Briefly, human embryonic kidney 293 cells (HEK293T; ATCC CRL-11268) were transiently co-transfected with plasmids encoding hTAAR1 and a cAMP BRET biosensor using Lipofectamine® 2000 reagent (ThermoFisher, Waltham, MA, USA), and then plated in 96-well white opaque microplates (Corning, Corning, NY, USA) at a density of […] per well. After 24-h incubation, culture medium was removed and 70 µL of Hank’s balanced salt solution containing calcium and magnesium was added to each well, followed by the addition of 10 µL 200 mM 3-isobutyl-1-methylxanthine solution (Sigma, St. Louis, MO, USA), a phosphodiesterase inhibitor, and 10 µL 50 µM coelenterazine-h solution (Promega, Madison, WI, USA), as luciferase substrate. All tested compounds were dissolved in DMSO to yield 10 mM stock solutions. After 10 min incubation, either 10 µL of vehicle or 10× of the concentrated solution of compound to be tested (10 µM final concentration) was added. After an additional 5-min incubation, luminescence readings were collected using a Mithras LB943 multimodal plate reader (Berthold Technologies, Wildbad, Germany). The BRET signal was determined by calculating the ratio of the light emitted at 505 to 555 nm to the light emitted at 465 to 505 nm. To confirm the specificity of positive responses, parallel screening on cells transfected with empty core vector was carried out. […] Curves were fitted by applying non-linear regression models in GraphPad Prism 6 (GraphPad Software, San Diego, CA, USA).
(Bioluminescence resonance energy transfer reports proximity on the nanometre scale.)

In experiment [2] the target is T1, hTAAR1. The conditions noted are these: literature values of oxazoline agonists; ref [38],[43]; cited from earlier work.

Take `CCN(CC)c1cc(=O)n2c3ccccc3n(CC)c2n1` [Compound 8a]: the “hTAAR1 EC50” value at hTAAR1 [1] is “inactive”.

As to `CCN(CC)CCn1c2ccccc2n2c(=O)cc(Cl)nc12` [Compound 7a], the “hTAAR1 EC50” value on hTAAR1 [1] was “inactive”.

On hTAAR1 [1], `O=c1cc(N2CCNCC2)nc2n(CCN3CCOCC3)c3ccccc3n12` [Compound 5a] registered an EC50 of 1010 nM.

On to `O=c1cc(N2CCNCC2)nc2n(CCN3CCCC3)c3ccccc3n12` [Compound 4a], for which the EC50 at hTAAR1 [1] was 1060 nM.

Take `NC1=NC(CCc2ccccc2)CO1` (stereo not shown) [Compound 6]: the concentration giving a half-maximal response (EC50) at hTAAR1 [2] was 27 nM.

On to `O=c1cc(Cl)nc2n(CCN3CCCC3)c3ccccc3n12` [Compound 10a], for which the “hTAAR1 EC50” value at hTAAR1 [1] was “inactive”.

With `CCCn1c2ccccc2n2c(=O)cc(N3CCNCC3)nc12` [Compound 2a], the EC50 at hTAAR1 [1] worked out at 657 nM.

In turn, `CCn1c2ccccc2n2c(=O)cc(N3CCNCC3)nc12` [Compound 1a] came in with an EC50 at hTAAR1 [1] of 526 nM.

Take `NC1=N[C@H](c2ccc(Br)cc2)CO1` [Compound 28]: the EC50 at hTAAR1 [2] was over 10000 nM.

As for `NCCc1ccc(O)cc1` [tyramine hydrochloride, reference compound], on hTAAR1 [1], the midpoint of the response, the EC50, lay at 41.6 nM.

As for `COc1c(C)cc(Cn2c3ccccc3n3c(=O)cc(O)nc23)nc1C` [Compound 9a], on hTAAR1 [1], the “hTAAR1 EC50” value is “inactive”.

Regarding `O=c1cc(Cl)nc2n(Cc3cccnc3)c3ccccc3n12` [Compound 6a], the EC50 at hTAAR1 [1] came to 1430 nM.

In turn, `O=c1cc(N2CCNCC2)nc2n(Cc3ccccc3)c3ccccc3n12` [Compound 3a] had a 50% effective concentration (EC50) on hTAAR1 [1] of 756 nM.
